Laboratory results reported in patent US4566984A, “Ether polycarboxylates” (The Procter & Gamble Company, priority 1984, dated 1986).
Counter-ions that a name gives are not always drawn.

Assay: Calcium Binding Constants Determination (calcium selective electrode titration)
Type: physicochemical
Conditions: for Calcium Ion Binding Constants, Log KCa, pH 7.6 / Calcium Ion Binding Constants, Log KCa, pH 9.5: 35° C., 0.1 M ionic strength
From the text: A computer system (Hewlett-Packard) with digital voltmeters was used to collect and analyze data from an Orion calcium selective electrode and a linear syringe buret (Sage Instruments syringe pump plus a linear potentiometer). […] Volumetric accuracy was better than +/- 0.5%.
Three hundred data pairs of [Ca total] vs 10^(E/S), which is a linear measure of [Ca free], were collected and corrected for dilution during each titration. S is the Nernst equation slope, ca. 29 mv/decade, and E is the calcium electrode voltage. Calcium ion was titrated into buffer solution. Here, L represents the sequestering ligand. A ligand-free standard titration calibrated the electrode response. […] A third titration, adding Ca ion to a solution of a fixed [L tot] and fixed [Mg tot] was compared with KCa at different [Ca tot]/[L tot] ratios to reveal KMg at those same ratios. [formula]
This line was extrapolated back to [Ca free]=0 and [Ca tot] at that point represented a measure of calcium binding capacity.

Calcium Ion Binding Constants, Log KCa, pH 7.6	Calcium Ion Binding Constants, Log KCa, pH 9.5	SMILES	calcium binding relative to sodium tripolyphosphate and sodium nitrilotriacetate	calcium binding relative to two prior art ether carboxylates and sodium citrate
5.3	5.5	O=C(O)COC(CC(=O)O)(C(=O)O)C(=O)O [Compound 5, 3,3-dicarboxy-4-oxa-1,6 hexanedioic acid, tetrasodium salt]	at least equivalent	clear advantage in calcium binding
3.1	4.9	O=P(O)(O)OP(=O)(O)OP(=O)(O)O [Sodium tripolyphosphate, reference compound]	–	–
–	4.4	O=C(O)COC(CC(=O)O)C(=O)O (stereo not drawn) [2-oxa-1,3,4 butanetricarboxylic acid, sodium salt, reference compound]	–	–

The next lines start with the compound.

SMILES	Calcium Ion Binding Constants, Log KCa, pH 7.6	Calcium Ion Binding Constants, Log KCa, pH 9.5	calcium binding relative to sodium tripolyphosphate and sodium nitrilotriacetate	calcium binding relative to two prior art ether carboxylates and sodium citrate
O=C([O-])CN(CC(=O)[O-])CC(=O)[O-].[Na+].[Na+].[Na+] [Nitrilotriacetic acid, sodium salt, reference compound]	3.3	5.5	–	–
O=C([O-])C1CCC(C(=O)[O-])C(C(=O)[O-])(C(=O)[O-])O1.[Na+].[Na+].[Na+].[Na+] (stereo not drawn) [Compound 7, Oxacyclohexane-2,2,3,6-tetracarboxylic acid, tetrasodium salt]	–	6.2	at least equivalent	clear advantage in calcium binding
